Each structure is given as a SMILES string.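 Results reflect a 48-hour exposure of cells in 96-well plates to compound at five concentrations. GI50: concentration for 50% inhibition of growth. At the TGI there is no net growth.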

Test systems include CAKI-1 renal; CCRF-CEM leukemia; SK-OV-3 ovarian; SNB-19 CNS; HL-60(TB) leukemia; IGROV1 ovarian; MDA-MB-231 breast; UACC-257 melanoma.
Common to all, as to test: NCI tumour cell line growth inhibition, 48 h

Regarding `COc1ccc(Cl)cc1N1C(=O)C(Cl)=C(Nc2cccc(O)c2)C1=O`, the GI50 is 19.2 µM in the assay with CAKI-1 renal, 14.5 µM in the assay with CCRF-CEM leukemia, 34.2 µM in the assay on SK-OV-3 ovarian and 30.2 µM in the assay on SNB-19 CNS. For the same compound, the TGI was 55.2 µM in the assay on CAKI-1 renal, 43.8 µM in the assay on CCRF-CEM leukemia, greater than 100 µM in the assay on SK-OV-3 ovarian and greater than 100 µM with SNB-19 CNS.
Regarding `Nc1cc(N)c2nc(-c3ccccc3)c(Nc3ccc(F)cc3)nc2c1`, the GI50 in the assay with CAKI-1 renal was 19.2 µM; in the assay on HL-60(TB) leukemia it was 11.3 µM; in the assay on IGROV1 ovarian it was 16.6 µM; in the assay with MDA-MB-231 breast, 11 µM; in the assay on SK-OV-3 ovarian it was 40.7 µM; with SNB-19 CNS it was 22.1 µM. Also, in the assay on UACC-257 melanoma, the GI50 was 15.3 µM. The TGI in the assay on CAKI-1 renal was 40.4 µM; with HL-60(TB) leukemia, greater than 100 µM; in the assay on IGROV1 ovarian, greater than 100 µM; with MDA-MB-231 breast it was 30.5 µM; in the assay on SK-OV-3 ovarian, greater than 100 µM; in the assay on SNB-19 CNS, 40 µM. The compound further showed a TGI in the assay with UACC-257 melanoma of 29 µM.
As for `OCCNc1nc(NCCO)nc(Nc2ccc(C3=NN(c4cc(Cl)cc(Cl)c4)C(c4ccc(Cl)cc4)C3)cc2)n1` (stereo not given), the GI50 in the assay on CCRF-CEM leukemia is 2.11 µM; with HL-60(TB) leukemia, 1.86 µM; in the assay on IGROV1 ovarian, 2.48 µM; with MDA-MB-231 breast it was 1.71 µM; with SK-OV-3 ovarian, 2.31 µM; with SNB-19 CNS, 2.07 µM. Also, the GI50 in the assay on UACC-257 melanoma is 1.95 µM. Further, the TGI in the assay with CCRF-CEM leukemia was found to be 5.46 µM; with HL-60(TB) leukemia it was 3.85 µM; in the assay on IGROV1 ovarian, 5.68 µM; with MDA-MB-231 breast, 3.42 µM; in the assay on SK-OV-3 ovarian it was 5.15 µM; in the assay on SNB-19 CNS, 4.12 µM. Moreover, the TGI in the assay with UACC-257 melanoma came to 3.78 µM.
Turning to `CN1C(c2ccccc2)CC(=Nc2ccccc2)CC1c1ccccc1` (stereo not given), the TGI with CAKI-1 renal was 42.3 µM; in the assay on CCRF-CEM leukemia, greater than 100 µM; with HL-60(TB) leukemia, greater than 100 µM; in the assay on IGROV1 ovarian it was 38.4 µM; with SK-OV-3 ovarian, 8.12 µM; in the assay with SNB-19 CNS, 27.8 µM. Also, the TGI in the assay on UACC-257 melanoma is 24.1 µM.
In the case of `CCCCCCn1c(-c2ccc(C(=O)O/N=C(\N)c3ccc(OC)cc3)cc2)nc(-c2ccccc2)c1-c1ccccc1`, the GI50 is 0.997 µM in the assay on CAKI-1 renal; 0.506 µM in the assay with CCRF-CEM leukemia; 0.295 µM in the assay with IGROV1 ovarian; 1.61 µM in the assay with MDA-MB-231 breast; 4.45 µM with SK-OV-3 ovarian; 1.85 µM with SNB-19 CNS. Besides, the GI50 in the assay on UACC-257 melanoma is 4.07 µM. The TGI is 2.19 µM in the assay with CAKI-1 renal; 2.85 µM in the assay on CCRF-CEM leukemia; 0.869 µM in the assay on IGROV1 ovarian; 3.69 µM in the assay with MDA-MB-231 breast; greater than 100 µM with SK-OV-3 ovarian; 4.64 µM in the assay with SNB-19 CNS. This compound also gave a TGI in the assay with UACC-257 melanoma greater than 100 µM.
For `N#C/C(=C\c1cn(-c2ccccc2)c2ccccc12)C(=O)O`, the GI50 with CAKI-1 renal was 63.1 µM; with CCRF-CEM leukemia, 99 µM; in the assay on IGROV1 ovarian it was 49.3 µM; in the assay on MDA-MB-231 breast it was 44.2 µM; in the assay on SK-OV-3 ovarian it was 71.4 µM; with SNB-19 CNS it was 54.3 µM. The GI50 with UACC-257 melanoma was greater than 100 µM. The TGI in the assay on CAKI-1 renal, in the assay on CCRF-CEM leukemia, in the assay with IGROV1 ovarian, in the assay with MDA-MB-231 breast, in the assay on SK-OV-3 ovarian and with SNB-19 CNS was greater than 100 µM each time. Moreover, the TGI in the assay on UACC-257 melanoma is greater than 100 µM.
For `CCOC(=O)c1cc2c(cc1Cl)SC(N(c1ccc(F)cc1)S(=O)(=O)c1ccc(OC)cc1)=NS2(=O)=O`, the GI50 in the assay with CAKI-1 renal is 20.2 µM; in the assay with CCRF-CEM leukemia it was 1.31 µM; with HL-60(TB) leukemia, 18.5 µM; in the assay with IGROV1 ovarian, 37.7 µM; with MDA-MB-231 breast it was 19.2 µM; in the assay on SK-OV-3 ovarian, 24.3 µM. The GI50 with SNB-19 CNS is 18.6 µM. The TGI with CAKI-1 renal is 48.7 µM; in the assay on CCRF-CEM leukemia, 54.2 µM; with HL-60(TB) leukemia, 42.4 µM; in the assay on IGROV1 ovarian it was greater than 100 µM; with MDA-MB-231 breast it was 53.5 µM; in the assay with SK-OV-3 ovarian, greater than 100 µM. This compound registered a TGI in the assay with SNB-19 CNS of 51.2 µM.
`N#Cc1nc(-c2cccc(Br)c2)cc(-c2ccc(Nc3nc(N4CCCCC4)nc(N4CCCCC4)n3)cc2)c1N`: the GI50 in the assay with CAKI-1 renal is 1.93 µM; with CCRF-CEM leukemia it was 0.587 µM; with HL-60(TB) leukemia, 2.27 µM; with MDA-MB-231 breast, 1.56 µM; with SK-OV-3 ovarian it was 19.1 µM; in the assay on SNB-19 CNS, 6.41 µM. The GI50 in the assay on UACC-257 melanoma is 2.98 µM. Besides, the TGI in the assay with CAKI-1 renal is 5.03 µM; in the assay on CCRF-CEM leukemia, greater than 100 µM; with HL-60(TB) leukemia, 6.47 µM; with MDA-MB-231 breast, 3.21 µM; in the assay on SK-OV-3 ovarian it was greater than 100 µM; in the assay on SNB-19 CNS it was greater than 100 µM. Also, the TGI in the assay with UACC-257 melanoma is 29.8 µM.
As to `N#Cc1c(NC(=O)c2cccs2)[n+]([O-])c2ccccc2[n+]1[O-]`, the GI50 in the assay with CAKI-1 renal is greater than 100 µM; with CCRF-CEM leukemia, greater than 100 µM; with HL-60(TB) leukemia, greater than 100 µM; in the assay on MDA-MB-231 breast it was greater than 100 µM; in the assay on SK-OV-3 ovarian it was 26 µM; with SNB-19 CNS it was greater than 100 µM. Also, in the assay on UACC-257 melanoma, the GI50 was greater than 100 µM. Also, the TGI with CAKI-1 renal, in the assay with CCRF-CEM leukemia, with HL-60(TB) leukemia, in the assay on MDA-MB-231 breast, with SK-OV-3 ovarian and with SNB-19 CNS was greater than 100 µM each time. In addition, in the assay with UACC-257 melanoma, the TGI is greater than 100 µM.
On to `c1ccc(-c2nc(Nc3ccc(-c4nc5ccccc5[nH]4)cc3)nc(N3CCOCC3)n2)cc1`, for which the GI50 in the assay on CAKI-1 renal is 1.28 µM; with CCRF-CEM leukemia it was 0.545 µM; in the assay on HL-60(TB) leukemia it was 0.031 µM; with MDA-MB-231 breast it was 1.29 µM; in the assay with SK-OV-3 ovarian, 2.11 µM. Further, the TGI in the assay on CAKI-1 renal came to 2.54 µM; in the assay with CCRF-CEM leukemia, 3.12 µM; in the assay with HL-60(TB) leukemia, 0.601 µM; in the assay on MDA-MB-231 breast, 3.48 µM; in the assay with SK-OV-3 ovarian, 4.23 µM.
`Cn1c2ccccc2c2c(=O)n(CCCC(=O)NCC(=O)OC(=NC3CCCCC3)NC3CCCCC3)c3c(-c4ccccc4)nnn3c21`: the GI50 with CAKI-1 renal is 32.1 µM; in the assay on CCRF-CEM leukemia, 8.36 µM; in the assay on HL-60(TB) leukemia, 2.86 µM; in the assay on IGROV1 ovarian it was 2.84 µM; in the assay on MDA-MB-231 breast, 12.4 µM; with UACC-257 melanoma, 66.4 µM. The TGI in the assay with CAKI-1 renal is greater than 100 µM; in the assay on CCRF-CEM leukemia, 57.7 µM; with HL-60(TB) leukemia, 8.31 µM; with IGROV1 ovarian, 33 µM; in the assay on MDA-MB-231 breast it was 37.7 µM; in the assay with UACC-257 melanoma, greater than 100 µM.

The record behind these values is PubChem BioAssay (NCI).
